Measured values taken from US12331044B2, “Inhibitors of histone deacetylase useful for the treatment or prevention of HIV infection” (Merck Sharp & Dohme LLC, priority 2018, dated 2025).
Where two headings read alike, the source gives them in different places.

Tests used:
[1] = target: human HDAC2 (Homo sapiens (Human), UniProt Q92769); assay: HDAC2 inhibition assay (modified FLUOR DE LYS, 384-well); type: biochemical; settings: […] enzyme, 40 μM substrate BML-KI104, 3 h pre-incubation; read-out: HDAC2 IC50
[2] = target: human HDAC8 (Homo sapiens (Human), UniProt Q9BY41); assay: HDAC8 inhibition assay (modified FLUOR DE LYS, 384-well); type: biochemical; settings: […] enzyme, 200 μM substrate BML-KI178, 3 h pre-incubation; read-out: HDAC8 IC50
[3] = target: human HDAC1 (Homo sapiens (Human), UniProt Q13547)
[4] = target: human HDAC3/SMRT heterodimer (Homo sapiens (Human), UniProt O15379)
[5] = target: HDAC6 (Homo sapiens (Human), UniProt Q9UBN7)
[6] = system: KARN cells (Jurkat 2C4); assay: cells; settings: Homo sapiens
Description: KARN Assay Cell Maintenance
KARN cells (Jurkat 2C4) were licensed from the laboratory of Dr. John Karn, Case Western Reserve University, School of Medicine. […] An atmosphere of 5% CO2 and 90% humidity was used for all culture work.
These flasks were returned to the incubator.
The cells were gently resuspended in assay media (30 ml) and pelleted again. […] The cells were counted using the ViCell (Beckman Coulter) and diluted as necessary. […] The plates were covered and returned to the incubator prior to compound addition.
The reference compounds, DMSO and SAHA were then added to the compound plate. […] The final high concentration for SAHA and the test compounds in the assays was 40 μM. The final DMSO concentration in all wells was 0.4%. The minimal induction reference compound used was DMSO and the maximal induction reference compound used was SAHA (2 μM final concentration in the assay).
Day 3: The luciferase detection reagent was prepared by transferring the contents of one bottle of Steady-Glo buffer to one bottle of Steady-Glo aubstrate (Steady-Glo Luciferase Assay System, Promega, catalog number E2520), followed by gently mixing until the substrate was thoroughly dissolved and the solution was equilibrated to room temperature. […] The Steady-Glo Reagent was added to the plates (30 μl/well), which were then covered with a black lid and incubated for 10 minutes at room temperature. The plates were then read for luminescence on an Envision (Perkin Elmer) using the ultrasensitive mode (US LUM), 0.1 counts per second and 384-well aperture. Luminescence counts in the DMSO reference wells were considered as 0% induction, while those in the 2 μM SAHA reference wells were considered as 100% induction. Dose response curves were plotted as test compound concentration (X-axis) vs. percent activation (Y-axis) using a 4-parameter fit based on the Levenberg-Marquardt algorithm.

[7] = read-out: Karn EC50 nM 0.1% NHS, 0.1% normal human serum, luciferase induction, 2 μM SAHA = 100%
[8] = read-out: Karn EC50 nM 5% NHS, 5% normal human serum, luciferase induction, 2 μM SAHA = 100%

Sequence of human HDAC2 (Q92769 whole entry): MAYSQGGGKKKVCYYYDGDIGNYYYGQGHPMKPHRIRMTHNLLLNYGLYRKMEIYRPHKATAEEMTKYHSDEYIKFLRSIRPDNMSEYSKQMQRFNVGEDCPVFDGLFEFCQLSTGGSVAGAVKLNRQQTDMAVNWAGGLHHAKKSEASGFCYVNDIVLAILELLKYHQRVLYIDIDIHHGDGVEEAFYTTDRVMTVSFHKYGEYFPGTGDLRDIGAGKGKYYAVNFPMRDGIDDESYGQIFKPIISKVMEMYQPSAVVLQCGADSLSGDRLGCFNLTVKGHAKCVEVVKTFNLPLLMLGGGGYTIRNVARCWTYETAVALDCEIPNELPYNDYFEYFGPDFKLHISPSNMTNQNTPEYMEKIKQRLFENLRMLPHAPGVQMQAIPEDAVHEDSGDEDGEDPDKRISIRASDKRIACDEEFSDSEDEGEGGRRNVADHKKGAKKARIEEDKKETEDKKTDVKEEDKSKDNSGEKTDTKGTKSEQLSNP
Sequence of human HDAC3/SMRT heterodimer (O15379 whole entry): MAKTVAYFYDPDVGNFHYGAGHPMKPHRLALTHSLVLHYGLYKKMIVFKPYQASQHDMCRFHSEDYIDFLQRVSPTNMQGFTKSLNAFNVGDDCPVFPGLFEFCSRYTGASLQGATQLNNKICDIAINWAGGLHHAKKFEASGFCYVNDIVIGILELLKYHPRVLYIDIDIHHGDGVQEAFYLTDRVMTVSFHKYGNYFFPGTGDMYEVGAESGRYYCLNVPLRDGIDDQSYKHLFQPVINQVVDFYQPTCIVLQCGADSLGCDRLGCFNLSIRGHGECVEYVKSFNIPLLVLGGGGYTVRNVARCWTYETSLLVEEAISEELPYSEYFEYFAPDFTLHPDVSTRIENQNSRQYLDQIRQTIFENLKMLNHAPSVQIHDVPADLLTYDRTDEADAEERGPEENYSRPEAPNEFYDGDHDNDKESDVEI
Sequence of human HDAC3/SMRT heterodimer (Q9Y618 1-899 partner): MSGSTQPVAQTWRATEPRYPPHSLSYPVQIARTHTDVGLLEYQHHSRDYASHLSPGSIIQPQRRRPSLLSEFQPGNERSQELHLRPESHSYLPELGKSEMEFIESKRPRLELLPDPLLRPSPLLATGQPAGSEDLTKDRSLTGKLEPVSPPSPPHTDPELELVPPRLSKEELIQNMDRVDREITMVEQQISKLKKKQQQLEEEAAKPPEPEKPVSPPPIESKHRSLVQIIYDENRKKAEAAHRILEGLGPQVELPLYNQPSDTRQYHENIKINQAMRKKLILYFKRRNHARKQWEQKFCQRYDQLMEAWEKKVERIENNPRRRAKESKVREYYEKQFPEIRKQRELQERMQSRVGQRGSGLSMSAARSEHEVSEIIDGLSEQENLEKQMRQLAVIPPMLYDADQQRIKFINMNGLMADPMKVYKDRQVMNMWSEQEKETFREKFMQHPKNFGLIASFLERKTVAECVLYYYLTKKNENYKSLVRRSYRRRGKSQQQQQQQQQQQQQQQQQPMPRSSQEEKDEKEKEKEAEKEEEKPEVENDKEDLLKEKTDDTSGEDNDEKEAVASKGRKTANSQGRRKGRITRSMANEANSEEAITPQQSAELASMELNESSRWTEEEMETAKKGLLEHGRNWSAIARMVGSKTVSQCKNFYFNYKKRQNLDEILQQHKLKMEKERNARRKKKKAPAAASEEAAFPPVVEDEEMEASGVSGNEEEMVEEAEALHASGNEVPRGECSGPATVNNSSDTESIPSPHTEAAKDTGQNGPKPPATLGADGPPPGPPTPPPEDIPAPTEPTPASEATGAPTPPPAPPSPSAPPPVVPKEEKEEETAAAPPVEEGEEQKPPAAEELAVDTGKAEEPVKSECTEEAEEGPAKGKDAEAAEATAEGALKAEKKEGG
Sequence of human HDAC8 (Q9BY41 whole entry): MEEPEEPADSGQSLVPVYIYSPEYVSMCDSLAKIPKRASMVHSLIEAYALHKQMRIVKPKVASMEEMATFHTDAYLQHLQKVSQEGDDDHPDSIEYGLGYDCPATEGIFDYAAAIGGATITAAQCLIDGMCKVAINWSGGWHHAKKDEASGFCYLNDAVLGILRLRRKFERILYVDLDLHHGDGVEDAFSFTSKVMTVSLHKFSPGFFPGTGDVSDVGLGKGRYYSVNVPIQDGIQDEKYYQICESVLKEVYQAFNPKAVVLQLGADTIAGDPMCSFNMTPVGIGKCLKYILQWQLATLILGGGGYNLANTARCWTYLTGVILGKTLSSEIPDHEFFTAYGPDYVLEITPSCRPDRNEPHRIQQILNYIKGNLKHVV
Sequence of human HDAC1 (Q13547 whole entry): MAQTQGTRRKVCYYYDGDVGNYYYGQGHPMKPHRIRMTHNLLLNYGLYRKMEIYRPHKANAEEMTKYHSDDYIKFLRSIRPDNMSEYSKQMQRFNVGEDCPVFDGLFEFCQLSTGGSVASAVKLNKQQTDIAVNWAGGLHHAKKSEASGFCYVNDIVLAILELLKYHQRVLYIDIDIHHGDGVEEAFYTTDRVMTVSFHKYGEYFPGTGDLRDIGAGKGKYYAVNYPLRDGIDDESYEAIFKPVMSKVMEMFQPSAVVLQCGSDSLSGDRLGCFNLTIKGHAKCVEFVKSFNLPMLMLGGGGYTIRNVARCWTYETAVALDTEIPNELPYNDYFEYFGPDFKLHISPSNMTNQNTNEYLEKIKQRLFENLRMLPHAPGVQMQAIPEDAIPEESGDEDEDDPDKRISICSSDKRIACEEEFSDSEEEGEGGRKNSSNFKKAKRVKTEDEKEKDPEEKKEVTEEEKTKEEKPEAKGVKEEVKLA
Sequence of HDAC6 (Q9UBN7 whole entry): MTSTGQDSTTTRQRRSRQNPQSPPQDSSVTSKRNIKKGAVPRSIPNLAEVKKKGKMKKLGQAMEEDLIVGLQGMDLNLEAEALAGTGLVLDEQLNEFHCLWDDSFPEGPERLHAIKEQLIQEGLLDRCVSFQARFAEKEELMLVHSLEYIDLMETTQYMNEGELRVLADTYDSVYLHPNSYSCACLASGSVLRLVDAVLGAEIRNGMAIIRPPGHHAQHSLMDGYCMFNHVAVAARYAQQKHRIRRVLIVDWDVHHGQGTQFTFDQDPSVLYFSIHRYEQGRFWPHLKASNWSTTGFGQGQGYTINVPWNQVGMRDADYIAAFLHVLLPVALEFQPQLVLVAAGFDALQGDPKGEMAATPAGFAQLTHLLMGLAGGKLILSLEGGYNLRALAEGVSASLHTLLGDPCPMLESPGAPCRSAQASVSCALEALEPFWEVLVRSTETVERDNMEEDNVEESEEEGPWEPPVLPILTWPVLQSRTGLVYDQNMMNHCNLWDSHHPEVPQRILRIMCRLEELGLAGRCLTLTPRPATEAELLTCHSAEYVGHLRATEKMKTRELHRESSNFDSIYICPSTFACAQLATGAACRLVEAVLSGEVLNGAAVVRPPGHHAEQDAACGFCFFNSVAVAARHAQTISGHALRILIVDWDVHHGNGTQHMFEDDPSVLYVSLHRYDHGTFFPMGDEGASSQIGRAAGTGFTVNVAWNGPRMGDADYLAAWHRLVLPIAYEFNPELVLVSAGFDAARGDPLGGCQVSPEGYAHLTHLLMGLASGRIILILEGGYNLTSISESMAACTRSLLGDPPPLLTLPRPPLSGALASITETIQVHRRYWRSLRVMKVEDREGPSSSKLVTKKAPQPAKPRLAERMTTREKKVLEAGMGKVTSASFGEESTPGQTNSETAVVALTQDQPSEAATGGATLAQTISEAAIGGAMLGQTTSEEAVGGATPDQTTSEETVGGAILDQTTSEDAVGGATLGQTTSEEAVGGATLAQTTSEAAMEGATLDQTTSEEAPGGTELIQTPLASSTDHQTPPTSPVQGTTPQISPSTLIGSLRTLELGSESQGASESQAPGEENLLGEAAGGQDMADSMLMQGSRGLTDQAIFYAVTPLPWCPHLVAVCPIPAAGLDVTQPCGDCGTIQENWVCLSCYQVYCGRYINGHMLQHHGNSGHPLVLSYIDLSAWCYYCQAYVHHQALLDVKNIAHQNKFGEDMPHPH

SMILES | IC50 [1] [nM] | IC50 [2] [nM] | IC50 [3] [nM] | IC50 [4] [nM] | IC50 [5] [µM] | EC50 [6, 7] [nM] | EC50 [6, 8] [nM]
COc1nc2ccccc2cc1-c1cnc([C@H](CCCCCC(=O)c2ncco2)NC(=O)CN(C)C)[nH]1 [Example 41] | 2.6 | 65 | 0.39 | 0.71 | 3.3 | 16 | 140
COc1cc2c(ccc(=O)n2C)cc1-c1cnc([C@H](CCCCCC(=O)c2ccon2)NC(=O)CN(C)C)[nH]1 [Example 93] | 2.2 | 3.5 | 0.37 | 0.46 | 4.5 | 6.6 | 14
COc1cc2nc(C)ccc2cc1-c1cnc([C@H](CCCCCC(=O)c2ncco2)NC(=O)c2cc3n(n2)CCS(=O)(=O)C3)[nH]1 [Example 165, N-[(1S)-1-[5-(7-methoxy-2-methylquinolin-6-yl)-1H-imidazol-2-yl]-7-(1,3-oxazol-2-yl)-7-oxoheptyl]-6,7-dihydro-4H-pyrazolo[5,1-c][1,4]thiazine-2-carboxamide 5,5-dioxide] | 7.2 | 41 | 2.3 | 0.46 | > 0.9 | 370 | 760
COc1cc2nc(C)ccc2cc1-c1cnc([C@H](CCCCCC(=O)c2cc(C)on2)NC(=O)CN(C)C)[nH]1 [Example 56] | 1.8 | 310 | 0.4 | 0.37 | 45 | 6.4 | 11
CS(=O)(=O)c1ccc(-c2cnc([C@@H](N)CCCCCC(=O)c3ncco3)[nH]2)c(F)c1 [Example 143, (7S)-7-amino-7-{5-[2-fluoro-4-(methylsulfonyl)phenyl]-1H-imidazol-2-yl}-1-(1,3-oxazol-2-yl)heptan-1-one] | 35 | > 900 | 7.2 | 7.9 | > 0.9 | 1200 | 1600
COc1nc2ccccc2cc1-c1c[nH]c([C@H](CCCCCC(=O)c2ccon2)NC(=O)C2CCN(C)CC2)n1 [Example 40] | 1.8 | 3.3 | 1.5 | 1.5 | 2 | 15 | 58
CN1CCC2(CC1)C[C@@H]2C(=O)N[C@@H](CCCCCC(=O)c1ncco1)c1oc(-c2ccc(F)cc2)nc1C#N [Example 191, (S)-N-((S)-1-(4-cyano-2-(4-fluorophenyl)oxazol-5-yl)-7-(oxazol-2-yl)-7-oxoheptyl)-6-methyl-6-azaspiro[2.5]octane-1-carboxamide] | 12 | 2300 | 2.5 | 1.9 | 45 | 110 | 100
CN(C)C1(C(=O)N[C@@H](CCCCCC(=O)c2ccon2)c2ncc(-c3ccccc3F)[nH]2)CCCC1 [Example 64] | 2.1 | 3.5 | 0.58 | 0.64 | > 0.9 | 16 | 28
CCN(CC)CC(=O)N[C@@H](CCCCCC(=O)c1ncco1)c1ncc(-c2cc3ccccc3nc2OC)[nH]1 [Example 50] | 3.2 | 47 | 0.99 | 1.3 | 1.7 | 21 | 140
Cc1ccc2cc(-c3c[nH]c([C@H](CCCCCC(=O)c4ccon4)NC(=O)[C@H]4CC45CCN(C)CC5)n3)ccc2n1 [Example 44] | 0.97 | 5.7 | 0.24 | 0.26 | 45 | 9.5 | 9.1
CN(C)C1(C(=O)N[C@@H](CCCCCC(=O)c2ccon2)c2ncc(-c3ccccc3F)[nH]2)CCC1 [Example 63] | 2.1 | 3.8 | 0.54 | 0.46 | > 0.9 | 11 | 32
N[C@@H](CCCCCC(=O)c1ncco1)c1ncc(-c2ccc3nc(N4CCCC4)ccc3c2)[nH]1 [Example 19] | 9.4 | 3600 | 2 | 1.5 | > 1.5 | 210 | 420
COc1cc2nc(C)ccc2cc1-c1cnc([C@H](CCCCCC(=O)c2ncco2)NC(=O)C2CCCO2)[nH]1 (stereo partly drawn) [Example 169, N-[(1S)-1-[5-(7-methoxy-2-methylquinolin-6-yl)-1H-imidazol-2-yl]-7-(1,3-oxazol-2-yl)-7-oxoheptyl]tetrahydrofuran-2-carboxamide] | 15 | 180 | 3.4 | 1.2 | > 0.9 | 99 | 270
COc1cc(O[C@H]2C[C@H](OC)C2)cc(-c2cnc([C@@H](N)CCCCCC(=O)c3ncco3)[nH]2)c1F [Example 144, (7S)-7-amino-7-(5-{2-fluoro-3-methoxy-5-[(trans-3-methoxycyclobutyl)oxy]phenyl}-1H-imidazol-2-yl)-1-(1,3-oxazol-2-yl)heptan-1-one] | 39 | 210 | 7 | 6.4 | > 0.9 | 650 | 870
CN1CCC2(CC1)C[C@@H]2C(=O)N[C@@H](CCCCCC(=O)c1ccon1)c1[nH]c(-c2ccccc2F)nc1Cl [Example 112, (S)-N-((S)-1-(4-chloro-2-(2-fluorophenyl)-1H-imidazol-5-yl)-7-(isoxazol-3-yl)-7-oxoheptyl)-6-methyl-6-azaspiro[2.5]octane-1-carboxamide] | 0.25 | 23 | 0.083 | 0.035 | 4.6 | 1.4 | 1.4
COc1cc2nc(C)ccc2cc1-c1cnc([C@H](CCCCCC(=O)c2ccon2)NC(=O)C2CN(C)C2)[nH]1 [Example 103, (S)-N-(7-(isoxazol-3-yl)-1-(5-(7-methoxy-2-methylquinolin-6-yl)-1H-imidazol-2-yl)-7-oxoheptyl)-1-methylazetidine-3-carboxamide] | 0.44 | 3 | 0.13 | 0.18 | > 0.9 | 6 | 8.3
COc1nc2ccccc2cc1-c1c[nH]c([C@@H](N)CCCCCC(=O)c2ncco2)n1 [Example 15] | 18 | 720 | 5.2 | 7.3 | 40 | 180 | 670
COc1cc2c(ccc(=O)n2C)cc1-c1cnc([C@H](CCCCCC(=O)c2ccon2)NC(=O)C2CN(C)C2)[nH]1 [Example 102, (S)-N-(7-(isoxazol-3-yl)-1-(5-(7-methoxy-1-methyl-2-oxo-1,2-dihydroquinolin-6-yl)-1H-imidazol-2-yl)-7-oxoheptyl)-1-methylazetidine-3-carboxamide] | 0.78 | 3.1 | 0.24 | 0.25 | > 0.9 | 170 | 270
